Results on six compounds are retold here after publication PMC9837035 (Nature Communications, 2023).

By pIC50 is commonly meant the negative decadic logarithm of the IC50, by convention in mol/L.

pIC50: −log10 of the molar value. Where “and” joins values, the source holds several entries; their conditions need not be identical. Equal entries are not always repeated.

One series has as its system HUDEP-2 cells. Nature of the series: Cell viability assay (WST-8), HUDEP-2. The note with it: control (0 μM) = 100. In kind it is cell-based, human. The procedure:
(§1) A WST-8 (2-(2-methoxy-4-nitrophenyl)-3-(4-nitrophenyl)-5-(2,4-disulfophenyl)-2H-tetrazolium) assay using a Cell Counting Kit-8 (DOJINDO) was performed to measure cell viability using an EnSpire microplate reader (PerkinElmer).
(Tetrazolium assays rely on reduction of a dye to a coloured formazan, in cell work by metabolically active cells.)

In a further series the test system is mice. As to the kind of experiment: Mouse acute toxicity assay, survival. The series is classed as in vivo. The note with it: intravenous, 2-week observation. How it is done:
All animal studies were approved by the Institutional Committee for Animal Experiments of the Institute of Microbial Chemistry, and were performed in accordance with relevant guidelines and regulations to minimize animal suffering. Four-week-old female ICR mice were purchased from Charles River Breeding Laboratories (Yokohama, Japan) and maintained in a specific pathogen-free barrier facility. […] Samples were dissolved in saline containing 10% DMSO and 1% Tween 80 and injected intravenously into mice.

Series [1] deals with rat myoblast cell line H9c2. As to the kind of experiment: Cell viability assay (WST-8), H9c2. In kind it is cell-based. The note with it: control (0 μM) = 100. How it is done: as §1
For a further series, the target named is T1, G9a (Homo sapiens, UniProt Q96KQ7).
T1 sequence (Q96KQ7 1-1210): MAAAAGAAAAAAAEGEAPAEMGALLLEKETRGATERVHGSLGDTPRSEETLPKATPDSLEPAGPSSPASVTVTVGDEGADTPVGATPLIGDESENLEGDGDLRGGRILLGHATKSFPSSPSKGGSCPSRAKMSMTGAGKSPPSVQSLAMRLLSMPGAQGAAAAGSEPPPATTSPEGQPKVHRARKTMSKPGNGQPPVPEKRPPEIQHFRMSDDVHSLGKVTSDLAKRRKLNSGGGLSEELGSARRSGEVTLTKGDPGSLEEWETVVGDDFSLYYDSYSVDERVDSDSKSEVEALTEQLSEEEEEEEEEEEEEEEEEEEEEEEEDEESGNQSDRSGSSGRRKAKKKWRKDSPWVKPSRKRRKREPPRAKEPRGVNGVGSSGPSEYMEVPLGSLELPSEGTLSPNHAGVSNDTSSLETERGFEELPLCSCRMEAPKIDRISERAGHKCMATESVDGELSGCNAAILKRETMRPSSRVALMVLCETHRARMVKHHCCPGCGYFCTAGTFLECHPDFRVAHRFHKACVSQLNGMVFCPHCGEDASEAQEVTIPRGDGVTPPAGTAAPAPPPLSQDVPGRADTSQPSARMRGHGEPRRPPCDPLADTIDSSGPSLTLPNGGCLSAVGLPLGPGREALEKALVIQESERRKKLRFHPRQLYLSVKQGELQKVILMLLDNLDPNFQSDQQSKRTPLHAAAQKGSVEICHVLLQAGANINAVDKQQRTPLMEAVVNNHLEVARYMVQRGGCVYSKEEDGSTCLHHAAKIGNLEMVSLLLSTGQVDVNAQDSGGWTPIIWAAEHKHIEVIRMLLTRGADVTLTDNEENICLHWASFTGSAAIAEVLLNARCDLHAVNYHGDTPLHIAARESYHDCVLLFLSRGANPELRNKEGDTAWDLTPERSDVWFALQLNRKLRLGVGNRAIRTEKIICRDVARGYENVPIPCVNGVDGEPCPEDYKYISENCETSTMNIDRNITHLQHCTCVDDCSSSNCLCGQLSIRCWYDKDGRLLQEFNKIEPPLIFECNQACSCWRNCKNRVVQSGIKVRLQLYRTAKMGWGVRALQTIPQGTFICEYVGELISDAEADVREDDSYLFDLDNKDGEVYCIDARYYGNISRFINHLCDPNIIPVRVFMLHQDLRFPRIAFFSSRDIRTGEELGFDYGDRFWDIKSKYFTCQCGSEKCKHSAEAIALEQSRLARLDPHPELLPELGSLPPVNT
Nature of the series: In vitro G9a methyltransferase assay (AlphaLISA-based). The series is classed as biochemical. Details: purchased BPS Bioscience. The procedure:
An amplified luminescence proximity homogeneous assay (ALPHA) was performed with a modified version of a previously described method. Recombinant G9a proteins (BPS Bioscience) were incubated with 15 μM S-adenosyl-methionine (Sigma) and 50 nM biotinylated histone H3 (1-21; AnaSpec) in the assay buffer (50 mM Tris-HCl (pH 9.0), 50 mM NaCl, 0.01% Tween-20, and 1 mM DTT). After incubation at room temperature for 1 h, AlphaLISA anti-H3K9me2 acceptor beads (final concentration 10 μg/mL, PerkinElmer, AL117C) and AlphaScreen streptavidin donor beads (final concentration 10 μg/mL, PerkinElmer, 6760002B) were added and incubated for an additional 1 h prior to detection of the alpha signal with an EnSpire Alpha plate reader (PerkinElmer). ALPHA profile was analyzed using Origin (OriginLab).
A general note: In Alpha technology, singlet oxygen from a donor bead excites a nearby acceptor bead.

Series [2] concerns β- and γ-globin genes in HUDEP-2 cells. Nature of the series: RT-qPCR of β- and γ-globin in HUDEP-2 cells. The series is classed as cell-based, human. Conditions: single agents or combination; relative to DMSO = 1; replicate values. The procedure: (§2) Total cellular RNA was prepared using the Tissue Total RNA Mini Kit (FAVORGEN), and cDNA was synthesized using ReverTra Ace Master Mix (TOYOBO). Expression of target genes was analyzed using THUNDERBIRD SYBR qPCR Mix (TOYOBO) on a CFX Connect Real Time System (Bio-Rad). The qPCR data were acquired on CFX Maestro (Bio-Rad). Primers are listed in Supplementary Table 10. GAPDH was used as a reference. Primers were purchased from INTEGRATED DNA TECHNOLOGIES or FASMAC.

Series [3] deals with BGLT3-knockdown HUDEP-2 cells. As to the kind of experiment: RT-qPCR of BGLT3, β- and γ-globin in BGLT3-knockdown HUDEP-2 cells. The series is classed as cell-based, human. The note with it: 1 μM, relative to shctrl DMSO = 1, replicate values. How it is done:
as §2
Retroviral infection was used as previously described to establish cell lines stably expressing BGLT3 and transfected with the pCX4-pur vector, as well as knockdown cell lines transfected with the pSUPER vector[58]. Briefly, retroviruses were produced by transfecting PLAT-E cells with pCX4-pur-BGLT3 or pSUPER-ctrl, pSUPER-BGLT3, or pSUPER-G9a using 5 μg/mL polyethylenimine MAX (PEI MAX, Polysciences). Two days after transfection, the culture supernatant was collected and filtered through a 0.45-μm filter (Millipore) and used for infection with 8 μg/mL polybrene (Sigma). Forty-eight hours after infection, the infected cells were selected with 0.2 μg/mL puromycin (InvivoGen). The clonal puromycin-resistant cells were established via limiting dilution. The desired clones were confirmed by western blotting or qPCR.

The subject of series [4] is BGLT3 RNA in HUDEP-2 cells. As to the kind of experiment: RT-qPCR of BGLT3 in HUDEP-2 cells. In kind it is cell-based, human. Conditions: relative to DMSO = 1, replicate values; for BGLT3 expression in HUDEP-2 cells: Sup.Fig.11a. The procedure:
as §2
For orientation: Quantitative PCR measures a nucleic acid by following its amplification.

The test system of series [5] is Salmonella typhimurium TA100. As to the kind of experiment: Ames test, TA100. How it is done:
(§3) The Salmonella mutagenicity assay was performed by pre-incubating the test compounds for 20 min with Salmonella typhimurium strains TA98 and TA100, with and without metabolic activation (S9 mixture).
(§4) After this time 2 mL of top agar was added to the mixture and poured on to a plate containing minimum agar. The plates were incubated at 37 °C for 49 h and the His ± revertant colonies were counted manually and automatically by a colony counter (Colony analyzer CA-11D systems, System science Co.,Ltd.). The influence of metabolic activation was tested by adding 500 μL of 10% S9 mixture. All experiments were performed in duplicate. […] DMSO served as the negative control (100 μL/plate). The mutagenic index (MI, the average number of revertants per plate divided by the average number of revertants per plate from the negative control) was also calculated for each dose. A sample was considered positive when the MI was equal to or greater than 2 for at least one of the tested doses.

For series [6], the system named is Salmonella typhimurium TA98. As to the kind of experiment: Ames test, TA98. The procedure: as §3, §4
The mark [7] stands for this setting: G9a activity, AlphaLISA-based assay, mean of three experiments.
Where [8] appears, read: Sup.Table1, three replicate values.

Turning to `COc1cc2c(cc1OCCCN1CCCC1)N=C(N)C21CCC1` [A-366], the “cell viability in HUDEP-2 cells” value is 82.0673 and 97.2549 and 93.6968 with HUDEP-2 cells (0.00457247 μM); 88.332 and 96 and 98.8075 with HUDEP-2 cells (0.0137174 μM); 83.007 and 93.4902 and 87.9046 with HUDEP-2 cells (0.0411523 μM); 84.5732 and 96 and 89.6082 in the series on HUDEP-2 cells (0.123457 μM); 79.2482 and 92.549 and 93.6968 with HUDEP-2 cells (0.37037 μM); 81.1276 and 90.6667 and 88.586 in the series on HUDEP-2 cells (1.11111 μM). Besides, the “cell viability in HUDEP-2 cells” value in the series with HUDEP-2 cells (3.33333 μM) is 67.9718 and 80.3137 and 66.7802; with HUDEP-2 cells (10 μM), 52.3101 and 64.9412 and 58.9438. Further, the “Number of alive mice” value with mice (0.1953125 mg/kg) is 3/3; with mice (0.390625 mg/kg), 3/3; in the series on mice (0.78125 mg/kg), 3/3; with mice (1.5625 mg/kg), 0/3; in the series on mice (3.125 mg/kg) it was 0/3. Besides, the “cell viability in H9c2 cells” value was 104.360 and 99.467 and 89.907 in series [1] (0.039 μM); 95.640 and 83.067 and 81.211 in [1] (0.156 μM); 92.264 and 78.533 and 78.882 in [1] (0.625 μM); 78.059 and 64.000 and 71.429 in series [1] (2.5 μM); 53.868 and 49.733 and 52.329 in series [1] (10.0 μM).
Regarding `CSCC[C@H](NC(=O)c1[nH]c2c(c1C)C(=O)CC(C)(C)C2)C(=O)Nc1ccccc1` [compound 9], the pIC50 on G9a (setting [7]) was 6.52; against G9a (setting [8]) it was 6.52 and 6.54 and 6.50.
In the case of `Nc1ncn([C@H]2C[C@H](O)[C@@H](CO)O2)c(=O)n1` [decitabine], the “β-globin expression in HUDEP-2 cells treated with RK-701 and decitabine” value in [2] was 0.9105 and 1.679 and 1.802. Besides, the “γ-globin expression in HUDEP-2 cells treated with RK-701 and decitabine” value in series [2] was 5.299 and 8.189 and 8.892. Further, the “β-globin gene in BGLT3-knockdown HUDEP-2 cells” value in [3] (shBGLT3 #1) is 0.735 and 0.7829 and 0.8722; in series [3] (shBGLT3 #2) it was 0.6218 and 0.5853 and 0.4869; in series [3] (shBGLT3 #3), 0.8092 and 0.8421 and 1.086; in series [3] (shctrl), 0.8786 and 0.8917 and 0.7285. Besides, the “γ-globin gene in BGLT3-knockdown HUDEP-2 cells” value is 2.413 and 2.581 and 2.465 in [3] (shBGLT3 #1); 2.574 and 2.659 and 3.171 in series [3] (shBGLT3 #2); 1.425 and 1.467 and 1.465 in series [3] (shBGLT3 #3); 8.583 and 10.749 and 7.48 in series [3] (shctrl). Moreover, the “BGLT3 expression in HUDEP-2 cells” value in [4] was 2.269 and 2.6404 and 2.1358. Moreover, the “BGLT3 expression in HUDEP-2 cells treated with RK-701 and decitabine” value in series [4] (single agents or combination) was 3.3143 and 2.772 and 4.351.
In the case of `Nc1ccccc1NC(=O)c1ccc(CNC(=O)OCc2cccnc2)cc1` [MS-275], the “β-globin gene in BGLT3-knockdown HUDEP-2 cells” value in [3] (shBGLT3 #1) is 3.1513 and 3.12 and 3.5502; in series [3] (shBGLT3 #2) it was 2.766 and 2.148 and 2.288; in [3] (shBGLT3 #3), 1.145 and 1.259 and 1.535; in series [3] (shctrl), 4.7699 and 6.2041 and 4.688. For the same compound, the “γ-globin gene in BGLT3-knockdown HUDEP-2 cells” value is 20.155 and 19.0925 and 20.8632 in series [3] (shBGLT3 #1); 8.523 and 7.607 and 25.7598 in [3] (shBGLT3 #2); 19.0595 and 19.9736 and 20.0664 in series [3] (shBGLT3 #3); 47.2575 and 62.7038 and 44.6998 in series [3] (shctrl). Moreover, the “BGLT3 expression in HUDEP-2 cells” value in [4] was 14.3147 and 21.8274 and 19.7082.
`COC(=O)c1ccc2nc([C@H](CCSC)NC(=O)c3[nH]c4c(c3C)C(=O)CC(C)(C)C4)[nH]c2c1` [compound 8]: the pIC50 against G9a (setting [7]) was 4.67; against G9a (setting [8]) it was 4.61 and 4.68 and 4.73.
Take `NC(=O)C(=Cc1ccc([N+](=O)[O-])o1)c1ccco1` [AF-2, 2-(2-furyl)-3-(5-nitro-2-furyl)acrylamide, reference compound]: the Number of reverants/plate in series [5] (TA100, - S9, base pair substitution mutation, 0.01 μg/plate) is 725 and 728; in series [6] (TA98, - S9, frameshift mutation, 0.1 μg/plate) it was 497 and 507. For the same compound, the Number of revertants/plate in series [5] (TA100, -S9, 0.01 μg/plate, positive control) is recorded as 727; in series [6] (TA98, -S9, 0.1 μg/plate, positive control), 502.
